According to patent US12318364B2, “Isoflavonoid compositions and methods for the treatment of cancer” (Aardvark Therapeutics, Inc., priority 2010, dated 2025):
In brackets after ≈: the same amount, converted by molar mass.

Assay: Solubility limit of compound d-4 in aqueous Captisol (SBE7-β-CD) solution
Type: physicochemical
Details: at 25° C., 20% Captisol® in water

solubility limit: 27.9 mg/mL (≈ 83.4 mM)
SMILES: Oc1ccc([C@H]2c3ccc(O)cc3OC[C@H]2c2ccc(O)cc2)cc1 (relative stereo) [Compound d-4, d-cis-3-(4-hydroxyphenyl)-4-(4-hydroxyphenyl)chroman-7-ol]
